pIC50: −log10 of the molar value. Read-outs that look alike come from different tables or passages of the source. Blank lines part the entries; values can stand above or below the compound they belong to. Where a SMILES comes first, the peptide text is derived from it. Bridges are numbered along the chain shown (N, C = ends). Side-chain parts run from the residue outwards. [ ]: non-standard residue; d: D form. The star is where a group is joined. X1 = O=C(O)CN1CCN(CC(=O)O)CCN(CC(=O)N[C@@H](CS(=O)(=O)O)C(=O)N[C@@H](CCCCNC(=O)CCCc2ccc(I)cc2)C(=O)*)CCN(CC(=O)O)CC1; X6 = COc1ccc(CCCC(=O)NCCCC[C@H](NC(=O)[C@H](CS(=O)(=O)O)NC(=O)CN2CCN(CC(=O)O)CCN(CC(=O)O)CCN(CC(=O)O)CC2)C(=O)*)cc1; X7 = COc1ccc(CCCC(=O)NCCCC[C@H](NC(=O)CN2CCN(CC(=O)O)CCN(CC(=O)O)CCN(CC(=O)O)CC2)C(=O)*)cc1; DOTA = O=C(O)CN1CCN(CC(=O)O)CCN(CC(=O)*)CCN(CC(=O)O)CC1; Butanoyl(4-(4-MeO-phenyl)) = COc1ccc(CCCC(=O)*)cc1; 2Nal = N[C@@H](Cc1ccc2ccccc2c1)C(=O)O; Lys(iPr) = CC(C)NCCCC[C@H](N)C(=O)O; Cya = N[C@@H](CS(=O)(=O)O)C(=O)O
Columns and labels:
CXCR4 [1] = molecular target: T1, CXCR4 (Homo sapiens, UniProt P61073); assay: Competitive binding assay, [125I]SDF-1α displacement on CHO:CXCR4 cells; design: expressed in transfected cells; host or cells: CHO:CXCR4 cells; settings: [125I]SDF-1α 0.01 nM, 1 h at 27° C., read-out: IC50 (nM), binding affinity for hCXCR4
Experimental: CHO:CXCR4 cells were seeded at a density of 1×10^5 cells/well in 24-well poly-D-lysine coated plates (Corning BioCoat) and incubated with [^125I]SDF-1α (0.01 nM, PerkinElmer) and competing nonradioactive ligands ([…]). The cells, radioligand, and competing peptides were incubated for 1 h at 27° C. with moderate shaking. Following the incubation period, the supernatant was aspirated, followed by three washes with 1 mL of ice-cold PBS. Cells were harvested with 200 μL of trypsin and counted on a y counter. Data were plotted in GraphPad Prism 7 to determine IC50 values (GraphPad Software, Inc., La Jolla, CA). The values are reported as mean±standard deviation.
Target sequence in this assay (P61073 whole entry): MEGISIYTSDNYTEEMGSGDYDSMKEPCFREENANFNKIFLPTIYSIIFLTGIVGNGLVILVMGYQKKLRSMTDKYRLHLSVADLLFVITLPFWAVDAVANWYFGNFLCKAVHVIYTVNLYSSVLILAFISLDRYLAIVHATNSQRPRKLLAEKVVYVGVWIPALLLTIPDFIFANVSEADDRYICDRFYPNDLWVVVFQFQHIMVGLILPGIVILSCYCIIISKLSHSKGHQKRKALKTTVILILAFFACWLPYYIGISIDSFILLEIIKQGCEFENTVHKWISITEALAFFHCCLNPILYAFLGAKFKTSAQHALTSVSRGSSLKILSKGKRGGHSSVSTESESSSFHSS

Z138 tumor-bearing mice = assay: in vivo; settings: male, NOD.Cg-Rag1tm1Mom Il2rgtm1Wjl/SzJ (NRG), mouse, iv
Procedure, shortened: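 Male NRG mice bearing subcutaneous Z138 mantle cell lymphoma xenografts (5×10^6 cells, grown to 200-300 mm^3) injected intravenously under isoflurane with 68Ga-labelled tracers. Harvested tissues weighed and gamma-counted; uptake expressed as % ID/g.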

CXCR4 [2] = molecular target: T1, CXCR4; settings: reported; read-out: IC50, block of SDF-1a binding to CXCR4; cited from earlier work
Target sequence in this assay (P61073 whole entry, species assumed): as the sequence (P61073 whole entry) above

[3] = test system: small cell lung cancer patients; settings: reported; cited from earlier work
[4] = test system: non-Hodgkin lymphoma, renal cell carcinoma, lung cancer, colorectal cancer, and breast cancer xenograft models; settings: reported; cited from earlier work

- IC50 (CXCR4 [1]): 10 to 50 nM
Compound: COc1ccc(CCCC(=O)NCCCC[C@H](NC(=O)CN2CCN(CC(=O)O)CCN(CC(=O)O)CCN(CC(=O)O)CC2)C(=O)N[C@@H](CS(=O)(=O)O)C(=O)NCCCC[C@@H]2NC(=O)CC[C@H](C(=O)N[C@@H](CCCCNC(C)C)C(N)=O)NC(=O)[C@@H](C)NC(=O)[C@H](Cc3ccc4ccccc4c3)NC(=O)[C@@H](CCCNC(=N)N)NC(=O)[C@H](CCCCNC(C)C)NC(=O)[C@H](Cc3ccc(O)cc3)NC2=O)cc1 [BL34L6] (K([Cya-X7])Y[Lys(iPr)][dR][2Nal][dA][dE][Lys(iPr)]-NH2; lactam N-7)

- IC50 (CXCR4 [1]): 10 to 50 nM
Compound: COc1ccc(CCCC(=O)NCCCC[C@H](NC(=O)[C@H](CS(=O)(=O)O)NC(=O)CN2CCN(CC(=O)O)CCN(CC(=O)O)CCN(CC(=O)O)CC2)C(=O)NCCCC[C@@H]2NC(=O)CC[C@H](C(=O)N[C@@H](CCCCNC(C)C)C(N)=O)NC(=O)[C@@H](C)NC(=O)[C@H](Cc3ccc4ccccc4c3)NC(=O)[C@@H](CCCNC(=N)N)NC(=O)[C@H](CCCCNC(C)C)NC(=O)[C@H](Cc3ccc(O)cc3)NC2=O)cc1 [BL34L7] (K(X6)Y[Lys(iPr)][dR][2Nal][dA][dE][Lys(iPr)]-NH2; lactam N-7)

- IC50 (CXCR4 [1]): > 100 nM
Compound: COc1ccc(CCCC(=O)NCCCC[C@H](NC(=O)[C@H](CCCCNC(C)C)NC(=O)[C@H]2CCC(=O)N[C@@H](CCCCNC(=O)[C@H](CS(=O)(=O)O)NC(=O)CN3CCN(CC(=O)O)CCN(CC(=O)O)CCN(CC(=O)O)CC3)C(=O)N[C@@H](Cc3ccc(O)cc3)C(=O)N[C@@H](CCCCNC(C)C)C(=O)N[C@H](CCCNC(=N)N)C(=O)N[C@@H](Cc3ccc4ccccc4c3)C(=O)N[C@H](C)C(=O)N2)C(N)=O)cc1 [BL34L8] (K([Cya-DOTA])Y[Lys(iPr)][dR][2Nal][dA][dE][Lys(iPr)]K(Butanoyl(4-(4-MeO-phenyl)))-NH2; lactam N-7)

- Biodistribution: Adrenals (Z138 tumor-bearing mice; 1 h): 3.76 % ID/g
- Biodistribution: Blood (Z138 tumor-bearing mice; 1 h): 18.59 % ID/g
- Biodistribution: Bone (Z138 tumor-bearing mice; 1 h): 1.16 % ID/g
- Biodistribution: Brain (Z138 tumor-bearing mice; 1 h): 0.29 % ID/g
- Biodistribution: Heart (Z138 tumor-bearing mice; 1 h): 4.23 % ID/g
- Biodistribution: Kidneys (Z138 tumor-bearing mice; 1 h): 5.23 % ID/g
- Biodistribution: Liver (Z138 tumor-bearing mice; 1 h): 3.14 % ID/g
- Biodistribution: Lungs (Z138 tumor-bearing mice; 1 h): 14.83 % ID/g
- Biodistribution: Muscle (Z138 tumor-bearing mice; 1 h): 1.20 % ID/g
- Biodistribution: Pancreas (Z138 tumor-bearing mice; 1 h): 1.80 % ID/g
- Biodistribution: Small Intestine (Z138 tumor-bearing mice; 1 h): 1.56 % ID/g
- Biodistribution: Spleen (Z138 tumor-bearing mice; 1 h): 1.56 % ID/g
- Biodistribution: Stomach (Z138 tumor-bearing mice; 1 h): 0.61 % ID/g
- Biodistribution: Testes (Z138 tumor-bearing mice; 1 h): 2.49 % ID/g
- Biodistribution: Z138 Tumor (Z138 tumor-bearing mice; 1 h): 4.09 % ID/g
- Ratio Tumor-to-Blood (Z138 tumor-bearing mice; 1 h): 0.22
- Ratio Tumor-to-Bone (Z138 tumor-bearing mice; 1 h): 2.39
- Ratio Tumor-to-Kidney (Z138 tumor-bearing mice; 1 h): 0.78
- Ratio Tumor-to-Muscle (Z138 tumor-bearing mice; 1 h): 3.35
- Ratio Tumor-to-Pancreas (Z138 tumor-bearing mice; 1 h): 2.31
- Biodistribution: Adrenals (Z138 tumor-bearing mice; 3 h): 3.12 % ID/g
- Biodistribution: Blood (Z138 tumor-bearing mice; 3 h): 14.23 % ID/g
- Biodistribution: Bone (Z138 tumor-bearing mice; 3 h): 0.97 % ID/g
- Biodistribution: Brain (Z138 tumor-bearing mice; 3 h): 0.22 % ID/g
- Biodistribution: Heart (Z138 tumor-bearing mice; 3 h): 3.34 % ID/g
- Biodistribution: Kidneys (Z138 tumor-bearing mice; 3 h): 3.92 % ID/g
- Biodistribution: Liver (Z138 tumor-bearing mice; 3 h): 3.18 % ID/g
- Biodistribution: Lungs (Z138 tumor-bearing mice; 3 h): 7.95 % ID/g
- Biodistribution: Muscle (Z138 tumor-bearing mice; 3 h): 1.25 % ID/g
- Biodistribution: Pancreas (Z138 tumor-bearing mice; 3 h): 1.54 % ID/g
- Biodistribution: Small Intestine (Z138 tumor-bearing mice; 3 h): 1.35 % ID/g
- Biodistribution: Spleen (Z138 tumor-bearing mice; 3 h): 2.03 % ID/g
- Biodistribution: Stomach (Z138 tumor-bearing mice; 3 h): 0.83 % ID/g
- Biodistribution: Testes (Z138 tumor-bearing mice; 3 h): 3.53 % ID/g
- Biodistribution: Z138 Tumor (Z138 tumor-bearing mice; 3 h): 9.81 % ID/g
- Ratio Tumor-to-Blood (Z138 tumor-bearing mice; 3 h): 0.69
- Ratio Tumor-to-Bone (Z138 tumor-bearing mice; 3 h): 8.14
- Ratio Tumor-to-Kidney (Z138 tumor-bearing mice; 3 h): 2.52
- Ratio Tumor-to-Muscle (Z138 tumor-bearing mice; 3 h): 7.89
- Ratio Tumor-to-Pancreas (Z138 tumor-bearing mice; 3 h): 6.59
Compound: CC(C)NCCCC[C@H](NC(=O)[C@H]1CCC(=O)N[C@@H](CCCCNC(=O)[C@H](CCCCNC(=O)CCCc2ccc(I)cc2)NC(=O)[C@H](CS(=O)(=O)O)NC(=O)CN2CCN(CC(=O)O)CCN(CC(=O)O)CCN(CC(=O)O)CC2)C(=O)N[C@@H](Cc2ccc(O)cc2)C(=O)N[C@@H](CCCCNC(C)C)C(=O)N[C@H](CCCNC(=N)N)C(=O)N[C@@H](Cc2ccc3ccccc3c2)C(=O)N[C@H](C)C(=O)N1)C(N)=O [[^177Lu]Lu-BL34L11] [metal not drawn] (K(X1)Y[Lys(iPr)][dR][2Nal][dA][dE][Lys(iPr)]-NH2; lactam N-7)

Compound: cyclo[Phe-Tyr-Lys(iPr)-D-Arg-2-Nal-Gly-D-Glu]-Lys(iPr)-NH2 [LY2510924]
- pIC50 (CXCR4 [2]): 10.10
- treatment efficacy with carboplatin/etoposide chemotherapy [3]: failed to improve treatment efficacy
- inhibition of growth of xenograft models [4]: able to inhibit growth
